For 7 molecules, % of control and % of inhibition results are on record in ChEMBL document CHEMBL5465560, “Selectivity Literature for EUbOPEN Chemogenomic Library” (2024).

The target in test [1] is G protein-coupled receptor kinase 4 (Homo sapiens) (UniProt P32298). Briefly: Selectivity interaction (Kinase panel (Z-LYTE Assay)) EUB0001632a GRK4. To be noted: at 10 µM.
For test [2], the system named is Platelet-derived growth factor receptor alpha (Homo sapiens), P16234 [V561D]. Description: (§1) Selectivity interaction (Kinase panel (Z-LYTE Assay)) EUB0001632a PDGFRA. Particulars: at 10 µM.
Test [3] has as its system Platelet-derived growth factor receptor alpha (Homo sapiens), P16234 [T674I]. The description is as §1. To be noted: at 10 µM.
Test [4] has as its system Platelet-derived growth factor receptor alpha (Homo sapiens), P16234 [D842V]. The description is as §1. To be noted: at 10 µM.
The target of test [5] is Platelet-derived growth factor receptor alpha (Homo sapiens, UniProt P16234). The description is as §1. To be noted: at 10 µM.
For test [6], the target named is T1, Beta-adrenergic receptor kinase 1 (Homo sapiens) (UniProt P25098).
T1 sequence (whole entry): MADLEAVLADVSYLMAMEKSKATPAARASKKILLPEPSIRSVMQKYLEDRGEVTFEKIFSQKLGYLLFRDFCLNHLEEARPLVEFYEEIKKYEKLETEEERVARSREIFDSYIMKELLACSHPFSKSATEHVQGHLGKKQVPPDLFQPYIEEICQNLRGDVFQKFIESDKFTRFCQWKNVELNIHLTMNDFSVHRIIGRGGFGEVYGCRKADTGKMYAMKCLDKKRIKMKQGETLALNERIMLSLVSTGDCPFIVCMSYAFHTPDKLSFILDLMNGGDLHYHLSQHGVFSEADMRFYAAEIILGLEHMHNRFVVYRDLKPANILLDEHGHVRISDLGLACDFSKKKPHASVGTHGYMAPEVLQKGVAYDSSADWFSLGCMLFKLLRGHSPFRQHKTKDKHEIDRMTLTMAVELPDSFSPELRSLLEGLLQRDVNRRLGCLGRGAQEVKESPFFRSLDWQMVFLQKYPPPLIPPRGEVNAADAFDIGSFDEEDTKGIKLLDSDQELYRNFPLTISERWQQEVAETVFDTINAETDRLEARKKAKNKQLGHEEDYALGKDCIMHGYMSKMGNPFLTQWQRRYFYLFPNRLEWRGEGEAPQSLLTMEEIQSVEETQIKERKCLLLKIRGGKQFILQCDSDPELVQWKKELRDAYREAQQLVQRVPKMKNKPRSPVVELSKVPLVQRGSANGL
Briefly: Selectivity interaction (Kinase panel (Z-LYTE Assay)) EUB0001632a ADRBK1. To be noted: at 10 µM.

For test [7], the target named is BMP-2-inducible protein kinase (Homo sapiens) (UniProt Q9NSY1). To be noted: at 10 µM.
In test [8] the target is Serine/threonine-protein kinase B-raf (Homo sapiens) (UniProt P15056). Description: Selectivity interaction (ActivX KiNativ screen (ex vivo kinase selectivity in human PBMCs)) EUB0001619a BRAF. To be noted: PBMC, at 1 µM. Type of test: cell-based.
Test [9] deals with Ribosomal protein S6 kinase alpha-3 (Homo sapiens, UniProt P51812). Briefly: Selectivity interaction (ActivX KiNativ screen (ex vivo kinase selectivity in human PBMCs)) EUB0001619a RPS6KA3. Type of test: cell-based. Particulars: PBMC, at 1 µM.
Test [10] concerns the target T2, Dual specificity tyrosine-phosphorylation-regulated kinase 3 (Homo sapiens) (UniProt O43781).
T2 sequence (whole entry): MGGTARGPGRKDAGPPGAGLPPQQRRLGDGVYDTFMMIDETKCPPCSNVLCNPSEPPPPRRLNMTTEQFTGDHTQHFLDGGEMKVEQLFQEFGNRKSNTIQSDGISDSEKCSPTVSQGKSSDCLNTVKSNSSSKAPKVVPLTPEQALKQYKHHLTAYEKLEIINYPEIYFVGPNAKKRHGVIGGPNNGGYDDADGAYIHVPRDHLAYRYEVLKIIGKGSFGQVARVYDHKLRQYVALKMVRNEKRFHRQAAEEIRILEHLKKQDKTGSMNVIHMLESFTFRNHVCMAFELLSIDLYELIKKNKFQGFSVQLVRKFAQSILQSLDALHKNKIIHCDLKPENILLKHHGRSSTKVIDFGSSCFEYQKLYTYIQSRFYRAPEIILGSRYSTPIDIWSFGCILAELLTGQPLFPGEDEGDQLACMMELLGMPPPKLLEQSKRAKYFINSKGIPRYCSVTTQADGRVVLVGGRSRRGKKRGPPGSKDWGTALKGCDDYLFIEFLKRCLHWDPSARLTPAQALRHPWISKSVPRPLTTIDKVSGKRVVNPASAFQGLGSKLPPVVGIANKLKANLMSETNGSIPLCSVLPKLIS
Briefly: Selectivity interaction (Kinase panel (Invitrogen)) EUB0000639a DYRK3. Particulars: at 200 nM.

The target of test [11] is Serine/threonine-protein kinase Nek6 (Homo sapiens) (UniProt Q9HC98). Particulars: at 10 µM.
Test [12] addresses T3, Serine/threonine-protein kinase Sgk1 (Homo sapiens) (UniProt O00141).
T3 sequence (whole entry): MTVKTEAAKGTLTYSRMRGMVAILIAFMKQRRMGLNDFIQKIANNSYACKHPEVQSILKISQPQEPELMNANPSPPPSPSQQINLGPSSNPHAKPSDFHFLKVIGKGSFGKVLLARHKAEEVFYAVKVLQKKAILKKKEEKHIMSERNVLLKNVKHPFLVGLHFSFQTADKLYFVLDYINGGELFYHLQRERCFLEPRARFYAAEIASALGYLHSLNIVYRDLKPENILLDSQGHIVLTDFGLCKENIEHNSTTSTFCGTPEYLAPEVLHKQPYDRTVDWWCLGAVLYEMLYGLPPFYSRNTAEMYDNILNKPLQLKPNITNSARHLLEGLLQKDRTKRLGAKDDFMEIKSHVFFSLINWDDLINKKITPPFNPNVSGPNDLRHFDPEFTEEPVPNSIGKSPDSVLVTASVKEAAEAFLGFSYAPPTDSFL
Briefly: Selectivity interaction (KinomeScan (DiscoverX)) EUB0001049a SGK1. To be noted: at 1 µM.

The test system of test [13] is Serine/threonine-protein kinase B-raf (Homo sapiens), P15056 [V600E]. Briefly: (§2) Selectivity interaction (KinomeScan (DiscoverX)) EUB0000045b BRAF.
The target in test [14] is Serine/threonine-protein kinase B-raf (Homo sapiens) (UniProt P15056). The test is described as §2.

Chain of Serine/threonine-protein kinase B-raf (Homo sapiens) (P15056 whole entry): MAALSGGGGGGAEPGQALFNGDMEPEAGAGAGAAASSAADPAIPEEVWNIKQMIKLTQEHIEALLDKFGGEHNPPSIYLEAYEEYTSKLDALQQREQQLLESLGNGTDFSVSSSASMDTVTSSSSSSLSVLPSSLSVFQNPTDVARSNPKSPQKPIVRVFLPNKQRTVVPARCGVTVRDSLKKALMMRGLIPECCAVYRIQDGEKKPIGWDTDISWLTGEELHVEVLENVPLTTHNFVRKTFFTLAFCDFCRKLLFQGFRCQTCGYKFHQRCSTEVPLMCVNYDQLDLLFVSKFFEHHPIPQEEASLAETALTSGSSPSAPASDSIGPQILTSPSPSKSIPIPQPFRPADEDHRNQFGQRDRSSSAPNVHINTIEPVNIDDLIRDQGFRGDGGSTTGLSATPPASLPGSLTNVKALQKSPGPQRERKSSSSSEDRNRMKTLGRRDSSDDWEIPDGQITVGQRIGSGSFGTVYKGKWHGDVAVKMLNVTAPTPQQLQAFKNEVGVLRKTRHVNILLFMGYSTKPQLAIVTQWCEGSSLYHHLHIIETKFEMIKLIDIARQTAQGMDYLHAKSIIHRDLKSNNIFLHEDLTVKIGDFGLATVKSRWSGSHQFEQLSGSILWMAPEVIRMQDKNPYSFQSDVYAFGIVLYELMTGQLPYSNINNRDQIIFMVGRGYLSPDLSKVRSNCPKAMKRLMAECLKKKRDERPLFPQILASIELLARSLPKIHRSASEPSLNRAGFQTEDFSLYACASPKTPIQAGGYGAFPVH
Chain of Serine/threonine-protein kinase B-raf (Homo sapiens), P15056 [V600E] (P15056 whole entry V600E): as the sequence (P15056 whole entry) above, with V600E counted along it
Chain of Platelet-derived growth factor receptor alpha (Homo sapiens), P16234 [D842V] (P16234 whole entry D842V): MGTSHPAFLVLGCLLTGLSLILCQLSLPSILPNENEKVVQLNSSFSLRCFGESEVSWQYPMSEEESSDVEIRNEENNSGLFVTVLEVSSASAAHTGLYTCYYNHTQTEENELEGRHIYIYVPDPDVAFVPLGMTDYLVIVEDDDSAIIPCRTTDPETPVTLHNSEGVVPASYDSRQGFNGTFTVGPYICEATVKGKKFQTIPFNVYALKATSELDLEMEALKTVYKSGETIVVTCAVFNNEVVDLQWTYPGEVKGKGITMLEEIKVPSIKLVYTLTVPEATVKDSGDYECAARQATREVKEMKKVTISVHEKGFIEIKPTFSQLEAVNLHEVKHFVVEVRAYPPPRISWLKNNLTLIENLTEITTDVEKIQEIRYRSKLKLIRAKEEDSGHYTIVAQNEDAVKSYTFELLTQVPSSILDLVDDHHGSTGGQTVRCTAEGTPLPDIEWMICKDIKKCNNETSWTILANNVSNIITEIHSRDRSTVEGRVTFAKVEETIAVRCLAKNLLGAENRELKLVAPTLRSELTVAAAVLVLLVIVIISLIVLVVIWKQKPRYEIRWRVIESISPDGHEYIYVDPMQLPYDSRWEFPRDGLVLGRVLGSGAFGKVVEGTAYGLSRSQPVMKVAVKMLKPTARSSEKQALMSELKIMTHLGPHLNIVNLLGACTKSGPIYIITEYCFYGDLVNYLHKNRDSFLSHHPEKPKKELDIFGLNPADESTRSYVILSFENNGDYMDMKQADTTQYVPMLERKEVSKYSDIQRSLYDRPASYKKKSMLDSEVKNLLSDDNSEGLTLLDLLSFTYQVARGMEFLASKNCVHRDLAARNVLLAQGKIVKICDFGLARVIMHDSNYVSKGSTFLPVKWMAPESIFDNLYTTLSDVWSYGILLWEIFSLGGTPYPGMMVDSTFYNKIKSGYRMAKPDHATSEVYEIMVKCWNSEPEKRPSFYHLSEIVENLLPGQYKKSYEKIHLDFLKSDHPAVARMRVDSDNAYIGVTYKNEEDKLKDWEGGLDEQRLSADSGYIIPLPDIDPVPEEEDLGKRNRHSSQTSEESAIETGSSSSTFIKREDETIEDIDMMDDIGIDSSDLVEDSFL
Chain of Ribosomal protein S6 kinase alpha-3 (P51812 whole entry): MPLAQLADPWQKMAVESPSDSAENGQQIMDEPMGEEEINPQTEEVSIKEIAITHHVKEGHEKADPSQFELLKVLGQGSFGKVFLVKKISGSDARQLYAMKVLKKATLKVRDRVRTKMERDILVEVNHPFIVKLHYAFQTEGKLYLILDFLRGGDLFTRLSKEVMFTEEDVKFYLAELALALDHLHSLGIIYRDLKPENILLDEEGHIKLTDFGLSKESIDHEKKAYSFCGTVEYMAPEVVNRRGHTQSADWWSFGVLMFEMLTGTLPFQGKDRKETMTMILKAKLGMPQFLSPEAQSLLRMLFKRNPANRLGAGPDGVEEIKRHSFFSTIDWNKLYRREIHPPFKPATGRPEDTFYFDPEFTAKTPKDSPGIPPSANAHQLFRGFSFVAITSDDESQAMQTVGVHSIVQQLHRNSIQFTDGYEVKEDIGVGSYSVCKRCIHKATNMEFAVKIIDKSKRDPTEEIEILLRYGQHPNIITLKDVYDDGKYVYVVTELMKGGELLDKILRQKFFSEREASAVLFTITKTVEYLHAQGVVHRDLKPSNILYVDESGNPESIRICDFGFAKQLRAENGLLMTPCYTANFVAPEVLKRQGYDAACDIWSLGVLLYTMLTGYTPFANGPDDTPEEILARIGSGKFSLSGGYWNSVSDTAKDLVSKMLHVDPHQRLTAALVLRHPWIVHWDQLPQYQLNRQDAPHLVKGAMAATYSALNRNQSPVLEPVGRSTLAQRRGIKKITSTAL
Chain of Platelet-derived growth factor receptor alpha (Homo sapiens), P16234 [V561D] (P16234 whole entry V561D): as the sequence (P16234 whole entry D842V) above, with V561D, V842D counted along it
Chain of G protein-coupled receptor kinase 4 (Homo sapiens) (P32298 whole entry, looked up): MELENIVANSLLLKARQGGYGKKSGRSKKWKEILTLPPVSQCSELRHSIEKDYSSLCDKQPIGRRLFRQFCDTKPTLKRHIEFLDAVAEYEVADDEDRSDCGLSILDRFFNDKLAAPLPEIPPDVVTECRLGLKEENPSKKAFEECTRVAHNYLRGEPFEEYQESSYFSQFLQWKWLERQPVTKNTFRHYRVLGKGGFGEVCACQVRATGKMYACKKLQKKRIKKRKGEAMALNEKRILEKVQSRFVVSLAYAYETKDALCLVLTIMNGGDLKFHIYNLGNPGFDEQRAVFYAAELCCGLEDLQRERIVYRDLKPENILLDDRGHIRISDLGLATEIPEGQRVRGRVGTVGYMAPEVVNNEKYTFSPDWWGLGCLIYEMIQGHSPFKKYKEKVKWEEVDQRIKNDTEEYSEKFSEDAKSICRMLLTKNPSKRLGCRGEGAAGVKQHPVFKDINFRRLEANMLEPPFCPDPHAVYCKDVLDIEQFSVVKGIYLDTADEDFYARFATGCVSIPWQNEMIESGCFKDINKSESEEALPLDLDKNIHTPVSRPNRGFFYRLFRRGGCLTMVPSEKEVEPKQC

As to `Cn1cc(-n2cnc3c(NCc4nc5cc(Cl)c(Cl)cc5[nH]4)nc(N4CCOCC4)nc32)cn1`, the % of control in test [1] is 0.672%; in test [2], 19.4%; in test [3], 4.9%; in test [4] it was 7.9%; in test [5] it was 8.82%; in test [6], -5.86%.

In the case of `Cc1cc([C@@H](C)Nc2ccccc2C(=O)O)c2nc(N3CCOCC3)cc(=O)n2c1` [AZD-6482], the % of control in [7] was 94%.

On to `N#Cc1cccc(-c2c[nH]c3ncnc(N4CCOCC4)c23)c1`, for which the % of inhibition in test [8] was -1%; in test [9], 13%.

Turning to `CC[C@@H]1[C@H](F)C(=O)N[C@@H]1COc1nccc2cc(C(N)=O)c(OC)cc12` [ZIMLOVISERTIB], the % of inhibition in test [10] turned out to be 6.43%.

Take `CCN(CC)CCCCNc1ncc2cc(-c3cc(OC)cc(OC)c3)c(NC(=O)NC(C)(C)C)nc2n1`: the % of control in test [11] was determined as 100%.

On to `COc1cc(Nc2nc(C)cc(-c3cnn4nc(OC)ccc34)n2)cc(C(F)(F)F)c1`, for which the % of control in test [12] turned out to be 94%.

For `C=CC(=O)Nc1cc(-n2c(=O)ccc3cnc4ccc(-c5ccc(NS(C)(=O)=O)cc5)cc4c32)ccc1C`, the % of control in [13] (at 1 µM), in [13] (at 10 µM), in [14] (at 1 µM) and in test [14] (at 10 µM) was 100% each time.
